Laboratory results taken from PMC8376931, “Structure activity relationships and the binding mode of quinolinone-pyrimidine hybrids as reversal agents of multidrug resistance mediated by P-gp” (Scientific Reports, 2021).
Like-named read-outs stand apart in the source and are kept apart here.

Legend:
K562 cells = assay: Doxorubicin intracellular accumulation assay (flow cytometry) in K562; type: cell-based; set-up: key: MFI with inhibitor / MFI of Dox alone; conditions: 5 μM Dox
Protocol: (§1) The intracellular accumulation of the fluorescent probes, Dox and Rho123, was determined by monitoring its fluorescence intensity using flow cytometry (96-well plate format), as previously reported. The inhibition on the outward transport of these P-gp substrates results in an increased […] fluorescence intensity (MFI). […] Those compounds showing inhibition on P-gp at the maximum tested concentration were further evaluated at serial dilutions to determinate their MECs. […] The plates were then incubated in a 5% CO2 incubator for 1 h at 37 °C. Afterwards, 5 μM Dox was added to each well. The other fluorescent specific substrate of P-gp, Rho123, however, was added at 500 ng/mL to additionally measure the ability of the most promising compounds to block its efflux. Subsequently, cells from both assays were washed twice with cold PBS, and 15,000 events from each sample were analyzed to determine the cell-associated fluorescence. Dead cells were eliminated by means of forward- and side-scatter parameters. […] The blocking of the P-gp transport function was evaluated by the parameter FIR, calculated as the ratio of the MFI of Dox or Rho123 with the addition of the likely inhibitor to the MFI of Dox or Rho123 alone.

P-gp [1] = target: T1, P-gp (Homo sapiens, UniProt P08183); conditions: 1 h
Protocol: as §1

SphK2 = conditions: previously found; cited from earlier work
SphK1 = conditions: previously found; cited from earlier work
[2] = MTT cytotoxicity assay in Lucena 1; type: cell-based; conditions: human, Lucena 1 cells, read-out: IC50 (cytotoxicity) against Lucena 1
Protocol: (§2) Then 0.5 mg/mL MTT in PBS was added. After additional incubation for 4 h, the formazan crystals obtained were dissolved in DMSO and the absorbance at 595 nm was read on an iMark micro-plate reader (Bio-Rad, USA). IC50 values for cytotoxicity were then calculated as reported[50] using nonlinear regression by GraphPad Prism 7 (Graphpad Software, Inc., San Diego, CA, USA, www.graphpad.com).
(§3) The cells were incubated at 37 °C at 5% CO2 for 48 h and the same protocol described above was followed. IC50 values of Dox were then obtained.

[3] = MTT cytotoxicity assay in K562; type: cell-based; conditions: human, K562 cells, read-out: IC50 (cytotoxicity) against K562
Protocol: as §2, §3

P-gp [4] = target: T1, P-gp
Protocol: The intracellular accumulation of the fluorescent probes, Dox and Rho123, was determined by monitoring its fluorescence intensity using flow cytometry (96-well plate format), as previously reported. The inhibition on the outward transport of these P-gp substrates results in an increased […] fluorescence intensity (MFI). […] The plates were then incubated in a 5% CO2 incubator for 1 h at 37 °C. Afterwards, 5 μM Dox was added to each well. The other fluorescent specific substrate of P-gp, Rho123, however, was added at 500 ng/mL to additionally measure the ability of the most promising compounds to block its efflux. Subsequently, cells from both assays were washed twice with cold PBS, and 15,000 events from each sample were analyzed to determine the cell-associated fluorescence. Dead cells were eliminated by means of forward- and side-scatter parameters. […] The blocking of the P-gp transport function was evaluated by the parameter FIR, calculated as the ratio of the MFI of Dox or Rho123 with the addition of the likely inhibitor to the MFI of Dox or Rho123 alone.

T1 sequence (P08183 whole entry): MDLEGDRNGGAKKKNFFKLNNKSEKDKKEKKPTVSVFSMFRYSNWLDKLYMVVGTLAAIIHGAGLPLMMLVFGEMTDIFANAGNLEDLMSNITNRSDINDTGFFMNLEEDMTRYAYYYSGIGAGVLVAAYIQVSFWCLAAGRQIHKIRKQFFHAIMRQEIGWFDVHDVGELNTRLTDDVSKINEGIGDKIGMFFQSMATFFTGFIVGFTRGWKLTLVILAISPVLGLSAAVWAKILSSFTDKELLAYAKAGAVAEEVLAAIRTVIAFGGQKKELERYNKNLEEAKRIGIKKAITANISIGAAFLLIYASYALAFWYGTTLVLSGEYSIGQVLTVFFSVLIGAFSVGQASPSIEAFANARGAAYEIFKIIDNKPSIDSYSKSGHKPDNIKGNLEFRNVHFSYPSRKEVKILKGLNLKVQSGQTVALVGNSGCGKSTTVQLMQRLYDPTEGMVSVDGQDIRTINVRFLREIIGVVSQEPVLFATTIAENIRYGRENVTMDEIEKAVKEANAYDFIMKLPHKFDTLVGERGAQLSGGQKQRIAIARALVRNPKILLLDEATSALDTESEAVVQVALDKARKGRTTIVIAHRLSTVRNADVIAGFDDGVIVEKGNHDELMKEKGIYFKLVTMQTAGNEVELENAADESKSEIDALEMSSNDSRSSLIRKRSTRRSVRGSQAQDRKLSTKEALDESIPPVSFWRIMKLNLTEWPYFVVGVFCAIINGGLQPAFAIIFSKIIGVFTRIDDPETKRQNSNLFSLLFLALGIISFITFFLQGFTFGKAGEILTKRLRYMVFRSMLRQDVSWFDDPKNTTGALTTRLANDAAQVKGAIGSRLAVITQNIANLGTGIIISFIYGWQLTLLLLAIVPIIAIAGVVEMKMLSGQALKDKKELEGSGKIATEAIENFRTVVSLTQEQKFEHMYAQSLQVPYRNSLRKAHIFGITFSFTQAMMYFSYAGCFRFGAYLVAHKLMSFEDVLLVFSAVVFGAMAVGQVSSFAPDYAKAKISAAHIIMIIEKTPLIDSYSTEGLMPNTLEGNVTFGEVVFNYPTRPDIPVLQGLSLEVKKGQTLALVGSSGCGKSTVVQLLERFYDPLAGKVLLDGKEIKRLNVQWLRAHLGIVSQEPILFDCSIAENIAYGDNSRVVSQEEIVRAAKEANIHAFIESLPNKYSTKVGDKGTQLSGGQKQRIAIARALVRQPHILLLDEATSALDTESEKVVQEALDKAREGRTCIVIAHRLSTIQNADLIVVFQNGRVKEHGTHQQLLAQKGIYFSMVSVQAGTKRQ

| SMILES | FIR K562 (K562 cells; compound 20 µM) | minimum effective concentration (MEC), Dox accumulation (P-gp [1]) | FIR Lucena 1 (P-gp [1]; 5 µM) | FIR Lucena 1 (P-gp [1]; 10 µM) | FIR Lucena 1 (P-gp [1]; 20 µM) | FIR Lucena 1 (P-gp [1]; 1.25 µM) | FIR Lucena 1 (P-gp [1]; 2.5 µM) | FIR Lucena 1 (P-gp [1]; 0.31 µM) | FIR Lucena 1 (P-gp [1]; 0.62 µM) | FIR K562 (K562 cells; compound 5 µM) | FIR K562 (K562 cells; compound 10 µM) | IC50 against SphK2 (SphK2) | IC50 against SphK1 (SphK1) | IC50 at 48 h [2] | IC50 at 48 h [3] | Rho123 fluorescence intensity, fold lower in Lucena 1 with respect to K562 (P-gp [4]) |
| --- | --- | --- | --- | --- | --- | --- | --- | --- | --- | --- | --- | --- | --- | --- | --- | --- |
| CC(=O)c1ccc(Nc2nccc(-c3ccc4ccccc4c3)n2)cc1 [Compound 3] | 0.98 ± 0.07 | 10 µM | 1.06 ± 0.05 | 1.24 ± 0.02 | 1.70 ± 0.22 | – | – | – | – | – | – | – | – | – | – | – |
| O=c1[nH]c2ccccc2cc1CNc1ccc(Nc2nccc(-c3ccc(Cl)cc3)n2)cc1 [Compound 4a] | 0.89 ± 0.03 | 20 µM | – | 1.03 ± 0.01 | 1.21 ± 0.04 | – | – | – | – | – | – | – | – | – | – | – |
| COc1ccc2[nH]c(=O)c(CNc3ccc(Nc4nccc(-c5ccc(Cl)cc5)n4)cc3)cc2c1 [Compound 4b] | 0.90 ± 0.03 | 2.5 µM | 1.20 ± 0.06 | 1.23 ± 0.08 | 1.29 ± 0.08 | 1.10 ± 0.13 | 1.20 ± 0.06 | – | – | – | – | – | – | – | – | – |
| COc1cc2cc(CNc3ccc(Nc4nccc(-c5ccc(Cl)cc5)n4)cc3)c(=O)[nH]c2cc1OC [Compound 4c] | 0.93 ± 0.02 | 0.62 µM | 1.32 ± 0.09 | 1.28 ± 0.07 | 1.39 ± 0.07 | 1.24 ± 0.08 | 1.31 ± 0.11 | 1.03 ± 0.01 | 1.11 ± 0.03 | – | – | – | – | – | – | – |
| O=c1[nH]c2ccccc2cc1CNc1ccc(Nc2nccc(-c3ccc4ccccc4c3)n2)cc1 [Compound 5a] | 0.86 ± 0.02 | 2.50 µM | 1.06 ± 0.01 | 1.10 ± 0.02 | 1.24 ± 0.07 | 0.95 ± 0.05 | 1.05 ± 0.01 | – | – | – | – | – | – | – | – | – |
| COc1ccc2[nH]c(=O)c(CNc3ccc(Nc4nccc(-c5ccc6ccccc6c5)n4)cc3)cc2c1 [Compound 5b] | 0.96 ± 0.02 | 0.62 µM | 1.31 ± 0.08 | 1.25 ± 0.07 | 1.36 ± 0.08 | 1.21 ± 0.07 | 1.29 ± 0.08 | 1.07 ± 0.03 | 1.16 ± 0.07 | – | – | – | – | – | – | – |
| Clc1ccc(-c2ccnc(N3CCNCC3)n2)cc1 [Compound 6] | 1.20 ± 0.02 | – | 1.18 ± 0.03 | 1.38 ± 0.08 | 1.65 ± 0.12 | 1.09 ± 0.06 | 1.18 ± 0.04 | – | – | 1.09 ± 0.04 | 1.19 ± 0.02 | – | – | – | – | – |
| O=c1[nH]c2ccccc2cc1CN1CCN(c2nccc(-c3ccc(Cl)cc3)n2)CC1 [Compound 6a] | 0.92 ± 0.04 | 5 µM | 1.15 ± 0.05 | 1.30 ± 0.05 | 1.40 ± 0.05 | – | 1.06 ± 0.04 | – | – | – | – | – | – | – | – | – |
| COc1ccc2[nH]c(=O)c(CN3CCN(c4nccc(-c5ccc(Cl)cc5)n4)CC3)cc2c1 [Compound 6b] | 0.94 ± 0.10 | 2.5 µM | 1.32 ± 0.09 | 1.44 ± 0.13 | 1.55 ± 0.07 | 1.01 ± 0.03 | 1.15 ± 0.05 | – | – | – | – | – | – | – | – | – |
| COc1cc2cc(CN3CCN(c4nccc(-c5ccc(Cl)cc5)n4)CC3)c(=O)[nH]c2cc1OC [Compound 6c] | 0.79 ± 0.007 | 0.62 µM | 1.32 ± 0.09 | 1.49 ± 0.20 | 1.68 ± 0.12 | 1.19 ± 0.07 | 1.32 ± 0.08 | 1.00 ± 0.01 | 1.11 ± 0.03 | – | – | no activity | no activity | – | – | – |
| c1ccc2cc(-c3ccnc(N4CCNCC4)n3)ccc2c1 [Compound 7] | 1.20 ± 0.06 | – | 1.19 ± 0.05 | 1.42 ± 0.02 | 2.23 ± 0.26 | – | 1.07 ± 0.10 | – | – | – | 1.10 ± 0.08 | – | – | 17.9 ± 0.55 µM | – | – |
| O=c1[nH]c2ccccc2cc1CN1CCN(c2nccc(-c3ccc4ccccc4c3)n2)CC1 [Compound 7a] | 1.02 ± 0.07 | 1.25 µM | 1.38 ± 0.11 | 1.52 ± 0.17 | 1.33 ± 0.11 | 1.10 ± 0.03 | 1.28 ± 0.12 | – | 0.95 ± 0.02 | – | – | – | – | – | – | – |
| COc1cc2cc(CN3CCN(c4nccc(-c5ccc6ccccc6c5)n4)CC3)c(=O)[nH]c2cc1OC [Compound 7c] | 1.04 ± 0.03 | 0.62 µM | 1.27 ± 0.04 | 1.29 ± 0.11 | 1.45 ± 0.10 | 1.24 ± 0.05 | 1.23 ± 0.02 | 1.08 ± 0.05 | 1.22 ± 0.07 | – | – | – | – | 10.2 ± 0.23 µM | 6.7 ± 0.2 µM | – |
| NCCN1CCN(c2nccc(-c3ccc(Cl)cc3)n2)CC1 [Compound 10] | 1.18 ± 0.03 | 1.25 µM | 1.41 ± 0.09 | 1.30 ± 0.05 | 1.72 ± 0.14 | 1.11 ± 0.03 | 1.26 ± 0.04 | – | 1.06 ± 0.04 | – | 0.98 ± 0.06 | – | – | – | – | – |
| NCCN1CCN(c2nccc(-c3ccc4ccccc4c3)n2)CC1 [Compound 10a] | 1.26 ± 0.06 | 1.25 µM | 1.30 ± 0.08 | 1.63 ± 0.17 | 2.36 ± 0.25 | 1.13 ± 0.03 | 1.21 ± 0.02 | – | 1.04 ± 0.03 | 0.98 ± 0.01 | 1.13 ± 0.02 | – | – | 17.1 ± 0.95 µM | 17.7 ± 0.15 µM | – |
| COc1cc2cc(COc3nccc(-c4ccc(Cl)cc4)n3)c(=O)[nH]c2cc1OC [Compound 11] | 1.44 ± 0.03 | 1.25 µM | 1.38 ± 0.07 | 1.30 ± 0.07 | 2.87 ± 0.55 | 1.14 ± 0.02 | 1.23 ± 0.04 | – | 1.02 ± 0.02 | – | 1.01 ± 0.02 | – | – | 10.7 ± 0.15 µM | 3.8 ± 0.1 µM | – |
| COC(=O)c1ccccc1-c1c2ccc(=N)cc-2oc2cc(N)ccc12 [Rhodamine 123, reference compound] | – | – | – | – | – | – | – | – | – | – | – | – | – | – | – | 5.87 fold |
| COc1cccc2c1C(=O)c1c(O)c3c(c(O)c1C2=O)C[C@@](O)(C(=O)CO)C[C@@H]3O[C@H]1C[C@H](N)[C@H](O)[C@H](C)O1 [doxorubicin, reference compound] | – | – | – | – | – | – | – | – | – | – | – | – | – | 23 ± 5.41 µM | 0.64 ± 0.13 µM | – |
| COc1ccc(CCN(C)CCCC(C#N)(c2ccc(OC)c(OC)c2)C(C)C)cc1OC (stereo not drawn) [verapamil, reference compound] | 1.08 ± 0.05 | – | – | – | – | – | – | – | – | – | – | – | – | – | – | – |
